Activity calls are given as the source filed them. The rule behind the calls is not given here.
biological target: Ubiquitin carboxyl-terminal hydrolase 8 (Homo sapiens) (UniProt P40818); assay: Ubiquitin-specific protease 8 inhibitors, concentration-effect, biochemical, validation of initial actives (AID 1645862); conditions: recombinant USP8 deubiquitinase activity assay;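 note: potency reflects inhibition of USP8 cleavage of a ubiquitin rhodamine substrate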
Sequence (P40818 whole entry, looked up): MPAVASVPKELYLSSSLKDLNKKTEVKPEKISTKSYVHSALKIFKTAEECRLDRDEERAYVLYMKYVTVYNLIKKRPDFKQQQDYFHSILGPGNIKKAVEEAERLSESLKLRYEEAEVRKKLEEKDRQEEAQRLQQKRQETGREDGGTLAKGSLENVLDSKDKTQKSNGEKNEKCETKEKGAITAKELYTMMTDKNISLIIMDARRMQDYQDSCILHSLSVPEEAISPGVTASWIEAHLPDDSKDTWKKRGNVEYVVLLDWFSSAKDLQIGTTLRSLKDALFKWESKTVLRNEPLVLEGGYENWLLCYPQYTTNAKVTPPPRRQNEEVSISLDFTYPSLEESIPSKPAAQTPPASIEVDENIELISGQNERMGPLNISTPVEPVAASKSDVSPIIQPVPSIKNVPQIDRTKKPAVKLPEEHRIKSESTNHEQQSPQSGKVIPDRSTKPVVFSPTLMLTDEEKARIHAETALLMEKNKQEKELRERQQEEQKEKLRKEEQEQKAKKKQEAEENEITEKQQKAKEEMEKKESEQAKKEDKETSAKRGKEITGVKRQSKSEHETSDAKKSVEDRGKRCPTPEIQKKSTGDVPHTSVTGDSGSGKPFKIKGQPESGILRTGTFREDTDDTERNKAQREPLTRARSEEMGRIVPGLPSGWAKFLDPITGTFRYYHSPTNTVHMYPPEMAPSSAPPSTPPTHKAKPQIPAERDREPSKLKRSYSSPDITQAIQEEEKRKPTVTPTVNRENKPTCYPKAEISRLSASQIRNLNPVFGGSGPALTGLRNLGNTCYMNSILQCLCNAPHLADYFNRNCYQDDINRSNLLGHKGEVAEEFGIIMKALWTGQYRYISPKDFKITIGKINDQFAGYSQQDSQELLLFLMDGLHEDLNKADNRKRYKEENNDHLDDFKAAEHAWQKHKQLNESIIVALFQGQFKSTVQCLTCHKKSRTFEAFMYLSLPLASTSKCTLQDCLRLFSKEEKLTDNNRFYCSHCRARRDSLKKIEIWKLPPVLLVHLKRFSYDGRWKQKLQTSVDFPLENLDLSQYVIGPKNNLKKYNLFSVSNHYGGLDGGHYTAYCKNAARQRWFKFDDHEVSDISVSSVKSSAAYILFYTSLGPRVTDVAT

IC50 | Compound
> 40 µM (inactive) | COc1cc(NS(=O)(=O)c2ccc(NC(=O)COc3ccc(C)cc3Br)cc2)nc(OC)n1
> 40 µM (inactive) | COc1ccc(-c2cc3nc([C@H](C)NC(=O)Cc4ccccc4C)nn3cn2)cc1
32.6 µM | NC(=O)c1ccccc1NC(=O)COc1ccc2c(c1)oc(=O)c1ccccc12
> 40 µM (inactive) | O=C(Nc1nc(-c2ccccc2)ns1)c1ccc2ncsc2c1
> 40 µM (inactive) | COc1ccc(CCC(=O)Nc2nnc(C3CC(=O)N(c4ccc(C)cc4)C3)s2)cc1 (configuration not stated)
> 40 µM (inactive) | Cc1c(OCC(=O)NCc2ccccc2Cl)ccc2c3c(c(=O)oc12)CCC3
> 40 µM (inactive) | COc1ccc(C(=O)COC(=O)c2cccc(NC(=O)c3ccc(Cl)cc3)c2)cc1
> 40 µM (inactive) | COc1ccc(-c2nc(Cn3nnc(C(=O)Nc4ccc(C)c(C)c4)c3N)c(C)o2)cc1
> 40 µM (inactive) | CC(C)CC(NC(=O)c1ccc(Cl)cc1Cl)c1nc2ccccc2[nH]1 (configuration not stated)
> 40 µM (inactive) | Cc1c(Cl)cccc1NC(=O)Cn1cc(C(=O)C2CC2)c2ccccc21
> 40 µM (inactive) | CCOc1ncccc1C(=O)Nc1ccnn1Cc1ccccc1
> 40 µM (inactive) | COc1ccc(NC(=O)c2cc(-c3cccnc3)n[nH]2)cc1Cl
> 40 µM (inactive) | CCOC(=O)CCc1c(C)c2ccc(OCC(=O)c3ccc(-c4ccccc4)cc3)c(C)c2oc1=O
> 40 µM (inactive) | Cc1ccc(NC(=O)Nc2ccccc2OCc2cc(=O)n3cc(C)ccc3n2)cc1
> 40 µM (inactive) | O=C(Cn1c(COc2ccccc2)nc2ccccc21)Nc1ccc(N2CCOCC2)cc1
> 40 µM (inactive) | CCOc1ccccc1-c1cc(NC(=O)c2cc3ccc4cccnc4c3[nH]2)on1
> 40 µM (inactive) | CCOc1cccc(-c2noc(-c3nn(-c4ccccc4)ccc3=O)n2)c1
> 40 µM (inactive) | COc1ccc(-c2cc3c(=O)n(CC(=O)Nc4ccccc4C)ccn3n2)cc1
> 40 µM (inactive) | O=C(CN1C(=O)c2ccccc2C1=O)Nc1nc(-c2ccc(Br)cc2)cs1
9.44 µM | COc1ccc(C(=O)NC(Cc2ccccc2)c2nc3ccccc3[nH]2)c(OC)c1 (configuration not stated)
> 40 µM (inactive) | CCn1cc2c(n1)c(=O)n(Cc1ccccc1)c(=O)n2CC(=O)NCc1ccc(C)cc1
> 40 µM (inactive) | CCOc1ccc2c(c1)c(=O)c(C(=O)c1ccc(F)cc1)cn2CC(=O)Nc1ccccc1
> 40 µM (inactive) | O=C(CSc1nc2ccccc2[nH]1)Nc1ccc2c(c1)OCCO2
> 40 µM (inactive) | Cn1c(=O)c(-c2ccc(C(=O)NCc3cccc(Cl)c3)cc2)nc2cccnc21
39.3 µM | O=C(COc1ccc(Cl)cc1)Nc1noc(-c2ccccc2)n1
21.3 µM | Cc1ccc(NC(=O)Cc2nnc3cc(-c4nc(C)no4)ccn23)cc1
> 40 µM (inactive) | CCN(c1ccc(NC(=O)CSc2nnc(-c3ccccc3)n2-c2ccc(OC)c(OC)c2)cc1)C(C)C
> 40 µM (inactive) | O=C(COc1nc2ccccc2nc1N1CCOCC1)NC(c1ccccc1)c1ccccc1
> 40 µM (inactive) | COc1ccc(CNC(=O)Nc2cccc3ccccc23)cc1
> 40 µM (inactive) | O=C(Cn1cnc(-c2ccccc2)cc1=O)Nc1ccc(Oc2ccccc2)cc1

The next lines start with the compound.

Compound | IC50
COC(=O)Nc1cccn(Cc2c(Cl)cccc2Cl)c1=O | > 40 µM (inactive)
O=C(c1cscn1)N1CCC2(CC1)CC1(CO2)Nc2ccccc2-n2cccc21 (configuration not stated) | > 40 µM (inactive)
CCOc1ccc2c(c1)c(=O)c(C(=O)c1ccc(C)cc1)cn2CC(=O)Nc1ccc(OC)c(OC)c1 | > 40 µM (inactive)
Cc1ccc2[nH]c(=O)c(CN(CC3COCCO3)S(=O)(=O)c3ccc(F)cc3)cc2c1 (configuration not stated) | > 40 µM (inactive)
CCCCCCCCCCCCCCCc1cc(O)cc(O)c1C(=O)O | 30.9 µM
COc1cccc(NC(=O)CCc2nnc3n(CCCOC(C)C)c(=O)c4ccccc4n23)c1 | > 40 µM (inactive)
Cc1ccc(-c2cc(C(F)F)n3ncc(C(=O)Nc4ccc(O)cc4)c3n2)cc1 | > 40 µM (inactive)
COc1cc(NC(=O)Cn2c(=O)n(-c3ccc(CC(=O)NCc4ccco4)cc3)c(=O)c3ccccc32)cc(OC)c1 | > 40 µM (inactive)
Cc1ccc(N2CC(c3nc4ccccc4n3CCOc3cccc(C)c3)CC2=O)cc1 (configuration not stated) | > 40 µM (inactive)
O=C(Nc1ccncc1)c1cn(Cc2ccccc2)cc2c(=O)n(-c3ccccc3)nc1-2 | > 40 µM (inactive)
Cc1ccc(Nc2nc3c(S(=O)(=O)c4ccccc4)nnn3c3ccccc23)c(C)c1 | > 40 µM (inactive)
CCCCCCCC1OC(=O)Cc2cc(O)c(O)c(O)c21 (configuration not stated) | 8.62 µM
Cc1nc2c(nnn2C[C@H]2CCCN2C(=O)c2ccc(F)cc2)c(=O)[nH]1 | > 40 µM (inactive)
Cc1sc(NC(=O)Cn2nnc3ccccc32)nc1-c1ccc2c(c1)CCN2C(=O)c1ccccc1F | > 40 µM (inactive)
Cc1ccc(CNCc2cc3c(-c4ccc(F)cc4)nn(-c4ccccc4)c3[nH]c2=O)cc1 | > 40 µM (inactive)
O=C(O)c1ccccc1C(=O)Nc1ccc(SC(C(=O)Nc2ccccc2Cl)c2ccccc2)cc1 (configuration not stated) | > 40 µM (inactive)
O=C(Cn1cc(C(=O)C(F)(F)F)c2ccccc21)N1CCc2ccccc21 | > 40 µM (inactive)
CCOc1ccccc1NC(=O)Cn1c(=O)n(CCC(=O)NCCc2ccc(OC)c(OC)c2)c(=O)c2ccccc21 | > 40 µM (inactive)
Cc1cccc(C(=O)Nc2cccc(SC(C(=O)Nc3ccc(Cl)c(C(=O)O)c3)c3ccccc3)c2)c1 (configuration not stated) | 23.4 µM
Cc1cc(Nc2cccc(Cl)c2)n2nc(-c3cccnc3)nc2n1 | > 40 µM (inactive)
O=S(=O)(Nc1cccc(O)c1)c1ccc2oc3ccc(S(=O)(=O)Nc4cccc(O)c4)cc3c2c1 | > 40 µM (inactive)

Compound | IC50
COc1c2nc3ccccc3oc-2cc(=O)c1OC | > 40 µM (inactive)
Cc1cc(C(=O)N2CCOCC2)c(C)n1-c1ccc(O)cc1 | 22.8 µM
O=c1[nH]c(C2CCN(S(=O)(=O)c3ccc(S(=O)(=O)NC4CCCCC4)cc3)CC2)nc2c1nnn2Cc1ccc(F)cc1 | > 40 µM (inactive)
COc1ccc(CCN2COc3c(cc(Cl)c4cccnc34)C2)cc1OC | > 40 µM (inactive)
Cc1ccc(NC(=O)Nc2ccc(C)n(CC(=O)Nc3cc(C)ccc3C)c2=O)cc1 | > 40 µM (inactive)
Cc1cc(N2CCN(c3ncccn3)CC2)nc2ccc(NC(=O)c3ccncc3)cc12 | > 40 µM (inactive)
C/C=C/C=C/[C@@H]1Cc2cc(O)cc(O)c2O1 | 20.2 µM
O=[N+]([O-])c1ccc2c(c1)nc1n2CCN(Cc2ccco2)C1 | > 40 µM (inactive)
COc1ccc(-c2nc(SCC(=O)Oc3c(C)cccc3C)n3[nH]c(=O)cc3n2)cc1 | 18 µM
Cc1ccc(NC(=O)c2nnn(CC(=O)Nc3cccc(C)c3C)c2N)cc1C | > 40 µM (inactive)
Cc1noc(/C=C/Nc2cc(Cl)cc(Cl)c2)c1[N+](=O)[O-] | > 40 µM (inactive)
N#Cc1ccccc1NC(=O)c1cc2c(s1)-c1ccccc1S(=O)(=O)C2 | > 40 µM (inactive)
Cc1ncc(CO)c2c1Oc1nc(-c3cccc(Cl)c3)nc(SCC(=O)N3CCCCC3)c1C2 | > 40 µM (inactive)
Cc1ccc(NC(=O)Cn2c(=O)n(CCC(=O)NCCc3ccccc3)c(=O)c3ccccc32)cc1C | > 40 µM (inactive)
Cc1cc(-c2nnc(SCC(=O)Nc3ccc(Br)c(C)c3)n2N)n[nH]1 | > 40 µM (inactive)
CCOC(=O)c1cc2c(ccn2-c2ccc(F)cc2)n1CC(=O)Nc1ccc2c(c1)OCCO2 | > 40 µM (inactive)
COc1cc2c(=O)n(CCC(=O)NC3CCCC3)c(=O)n(CC(=O)Nc3cccc(Cl)c3)c2cc1OC | > 40 µM (inactive)
Cc1ccc(-c2nn(C(C)(C)C)c3ncnc(NS(=O)(=O)c4ccc(Cl)cc4)c23)cc1 | > 40 µM (inactive)
O=C(Nc1c2c(nn1-c1ccc([N+](=O)[O-])cc1)CSC2)c1c(F)cccc1F | > 40 µM (inactive)
Cc1cccc(NC(=O)CCCc2nnc3c(=O)n(-c4cccc(F)c4)ccn23)c1 | > 40 µM (inactive)
O=C(/C=C/c1ccco1)N1CCC(Cn2cccn2)CC1 | > 40 µM (inactive)

Compound | IC50
Cc1cc(N2CCOCC2)nc(N2CCN(C(=O)C(C)Oc3ccccc3)CC2)n1 (configuration not stated) | > 40 µM (inactive)
O=c1c2[nH]c3ccccc3c2ncn1CCC1=CCCCC1 | > 40 µM (inactive)
Cc1ccc(C2=Nc3ccccc3N(CC(=O)Nc3cccc(C)c3C)C(=O)C2)cc1C | > 40 µM (inactive)
OC1CCCN(c2ncc(-c3cnccn3)c(-c3cccs3)n2)C1 (configuration not stated) | > 40 µM (inactive)
COC(=O)c1cc2c(ccn2-c2ccc(F)cc2)n1CC(=O)NC1CCCCC1 | > 40 µM (inactive)
Nc1ncnc2c1ncn2[C@@H]1O[C@H](CO)C[C@@H]1O | > 40 µM (inactive)
COc1ccc(NS(=O)(=O)c2cc(NC(=O)/C=C/c3ccco3)ccc2N2CCCC2)cc1 | > 40 µM (inactive)
CCn1c(SCC(=O)c2c(N)n(CC(C)C)c(=O)n(C)c2=O)nnc1-c1ccccc1 | > 40 µM (inactive)
CCc1[nH]c(=O)cc2cc(OC)c(OC)cc12 | 0.722 µM
CCOC(=O)N1CCN(C(=O)c2ccc(CS(=O)c3ccccc3Cl)o2)CC1 (configuration not stated) | > 40 µM (inactive)
CCn1c(CNC(=O)c2cccc(C)c2)nnc1SCC(=O)N1CCc2ccccc21 | > 40 µM (inactive)
Cc1ccc(Cn2cc(C(=O)Nc3ccccc3C(N)=O)ccc2=O)cc1 | 7.34 µM
Cc1ccc(NC(=O)Cc2sc(Nc3ccc(C)cc3)nc2O)cc1 | > 40 µM (inactive)
CCc1ccc(CN(C)C(=O)c2ccc(NS(=O)(=O)c3ccc(F)c(F)c3)cc2)cc1 | > 40 µM (inactive)
c1ccc2sc(-c3csc(-c4ccc5c(c4)OCCO5)n3)nc2c1 | > 40 µM (inactive)
O=C(O)c1nccnc1C(=O)N1CCc2ccccc2C1 | > 40 µM (inactive)
Cn1cc(C(=O)NCC2COc3ccccc3O2)c(=O)c2cc(S(=O)(=O)N3CCCCC3)ccc21 (configuration not stated) | > 40 µM (inactive)
COc1ccc(Cn2nc(C)cc2NC(=O)c2cccc(F)c2)cc1OC | > 40 µM (inactive)
CC(C)[C@H]1CC[C@@]2(CO2)[C@H]2C(=O)OCC(C(=O)O)=C[C@H]12 | 22.9 µM
COc1cc2c(=O)n(CC3CCCO3)c(=O)n(CC(=O)c3ccc4c(c3)OCO4)c2cc1OC (configuration not stated) | > 40 µM (inactive)
